# Patent publication US20220160779A1, “COMPOSITION FOR PROMOTING CARTILAGE TISSUE REGENERATION” (National University Corporation Tokyo Medical and Dental …, priority 2019, published 2022)
# Legend:
# p44/42 MAPK (Erk1/2) = assay: Western blotting, phosphorylation of p44/42 MAPK (Erk1/2) in synovial MSCs; format: cell-based, human; conditions: FIG. 5F
# Experimental: Synovial MSCs were seeded in 6 cm dishes to reach a cell count of 2×10^5, and cultured in normal growth medium for 1 day. The medium was replaced with fresh medium with reduced amount of FBS (MEM-alpha, 0.5% FBS and antibiotics) and cultured for one more day. The cells were treated with rh Activin A and/or PDGF-AA (amount 3 times the ED50) for up to 30 minutes. Then, those cells were lysed with cell lysis buffer (#9803S; Cell Signaling Technology, MA) to prepare total cell lysate.
# Western blotting was performed as described in Uomizu, M. et al, J Med Dent Sci. vol. 65, pp. 73 to 82. The antibodies used were purchased from Cell Signaling Technology (phospho-p44/42 (#4370), p44/42 (#9102), phospho-Akt (#9271), and Akt (#9272)).
# Wistar rats = assay: MIA-induced arthritis rat model, incapacitance test; format: in vivo; conditions: intra-articular at day 14 after MIA (400 ng/30 uL in PBS), vs control group; FIG. 9B
# Experimental: Wistar rats (Charles River, Japan) aged 10 weeks and weighing 330 to 345 g were used for this study. The rats were divided into two groups (those to be injected with Activin A after injection of mono-iodoacetic acid (MIA), and those to be injected with vehicle after injection of MIA (control)), and subjected to the following experiments.
# First, the rats were anesthetized by isoflurane inhalation, and 30 μL of physiological saline containing 1.0 mg MIA was injected into the left knee joint as described in Hoshino T. et al, BMC Musculoskelet Disord., 2018, 19(1): 291. Then, at day 14 after MIA injection, 30 μL of recombinant human Activin A (400 ng/30 μL in PBS) or PBS only as a vehicle was injected. Then, pain avoidance behavior (load asymmetry) between the left limb (MIA-injected side) and the right limb (MIA-uninjected side) was evaluated at day 0 (before injection) and days 1, 3, 7, 14, 17, 19, 21, 24, and 28 after injection.
# Load asymmetry was detected by using an incapacitance tester (Linton Instrumentation, Norfolk, UK) with rats in its prismatic Plexiglas case, and the left and right hindlimbs placed on independent force plates. […]
# Then, the change from the difference in the percentage of load before administration was then evaluated over time. […]
# synovial MSCs = assay: Proliferation assay of synovial MSCs with recombinant protein (MTT assay); format: cell-based, human; conditions: rh Activin A at ED50x10 and ED50x100 in 10% FBS and 0.5% FBS medium, days 0-7; FIGS. 5C and D
# Experimental: Primary human synovial cells were isolated from the synovial tissues obtained from patients who underwent total knee arthroplasty (TKA), as described in Sekiya I. et al, Clin Orthop Relat Res, 2015, 473(7), pp. 2316 to 2326. That is, first, 0.5 to 1 mg of synovium obtained by incising the suprapatellar bursa was subjected to collagenase D treatment (Sigma, MO, USA, 3 hours at 37° C.) to disperse nucleated cells. Debris was removed by passing the cell dispersion through a 70 μm nylon mesh. Nucleated cells were seeded in a 15 cm dish at 5.7×10^2 cells/cm^2 and maintained and cultured in MEM-alpha medium supplemented with 10% FBS and antibiotics (Gibco, MA, USA) for 14 days. The cells were then separated from the dish in TripLE solution (Gibco) and seeded twice more in a new dish to obtain a sufficient cell count to be used in the experiments. Note that in all experiments, cells within 6 passages were used.
# To evaluate the pro-proliferative activity of recombinant proteins (IL6, IL8, IL10, and Activin A), MTT assays were performed (see FIGS. 3C and 5C-E). Synovial MSCs were seeded to 1×10^3 cells/well in 96-well plates and cultured in 0.2 mL of normal growth medium 1 day before being subjected to recombinant protein treatment. On the following day, the medium was replaced with a fresh one (normal growth medium or medium with a reduced FBS concentration of 0.5% and recombinant protein added (10 times the concentration of ED50 or 100 times the concentration of ED50)). MTT assays were performed at days 0, 1, 3, 5, and 7 according to the method described in Denizot F. et al., J Immunol Methods, 1986, 89(2), pp. 271 to 277.
# In addition, the present inventors tried to clarify the molecular mechanism of MSC proliferative activity by Activin A. It has been reported that the ERK and PI3K signal transduction pathways are activated for MSC proliferation (see Uomizu, M. et al, J Med Dent Sci., 2018, vol. 65, pp. 73 to 82). With the above in mind, Activin A (rh Activin A) was applied to synovial MSCs in the presence of PI3K-PKB/Akt and Erk1/Erk2, a specific inhibitor for each of these signal transduction pathways, and the cell count was measured by MTT assay.
# [1] = tested on: rat model of total articular cartilage loss; assay: Full thickness articular cartilage defect model; format: in vivo; conditions: 4 weeks after the defect, FIG. 8
# Experimental: Next, in order to verify the regeneration of damaged articular cartilage and the suppression of degenerative degeneration, a model of full thickness articular cartilage defect was prepared to examine the effects of rh Activin A administration. Specifically, a 1.4 mmφ total articular cartilage loss was prepared in the femoral intercondylar region using an airtome, and 180 ng of Activin A (rh Activin A) was injected intra-articularly 1 week later.
substance,measurement,setting,value
Activin A: homodimer of two inhibin βA chains; recombinant human protein purchased from R&D Systems,phosphorylation of Erk1/2,"p44/42 MAPK (Erk1/2); Activin A alone, MSCs serum-starved 24 hours, within 30 minutes",not detected
same,intracellular Erk phosphorylation,p44/42 MAPK (Erk1/2); Activin A together with PDGF-AA,no enhancement
same,load on MIA-injected hindlimb (pain avoidance behavior),Wistar rats,significant improvement
same,proliferation of MSCs (MTT assay),synovial MSCs,significantly activated
same,degenerative degeneration of articular cartilage around the defect site,"[1]; 180 ng intra-articular, safranin O",significantly suppressed
same,chondrogenic differentiation of the formed tissue,[1],no significant promotion effect
same,formation of fibrocartilage-like tissue in the articular cartilage defect site,"[1]; intra-articular 1 week after defect (rh Activin A 180 ng/knee, rrPDGF-AA 900 ng/knee), vs PBS",promote the formation of fibrocartilage-like tissue
